Laboratory results published in article PMC9616902, “Chemical space docking enables large-scale structure-based virtual screening to discover ROCK1 kinase inhibitors” (Nature Communications, 2022).
Where two headings read alike, the source gives them in different places.

Target: T1, Human ROCK1 protein (amino acids 1–477) (Homo sapiens, UniProt Q13464)
T1 construct: purchased Carna Biosciences 01-109
Experiment: ROCK1 HTRF KinEASE-STK S2 biochemical activity assay
Conditions: for S0 / Sinf / nHill: curve fit parameter; for Ki: average +/- standard deviation of three measurements, 3 μM ATP
Experimental: Human ROCK1 protein (amino acids 1–477 from accession number NP_05397.1) was purchased from Carna Biosciences (Cat# 01-109). This sequence contains the catalytic domain of the protein, and the biochemical activity was measured by the HTRF KinEASE-STK S2 Kit (Cisbio, Cat# 62ST2PEB) according to the manufacturer’s protocol. To determine the IC50, compounds were first dispensed by the Echo Liquid Handler (Labcyte) into white 384-well plates (PerkinElmer, Cat# 6008289). A total of 3 μL of 2x ROCK1 enzyme solution was added to the compounds, followed by a 10 min incubation at room temperature. Then, 2x ATP and STK S2 peptide solution were added to initiate the one-hour enzyme reaction at room temperature. The final condition of the reaction was 1.5 nM Rock1, 3 μM ATP, 0.5 μM STK S2 peptide in 50 mM HEPES pH7.2, 10 mM MgCl2, 0.1% BGG, 0.005% Brij-35, 1 mM DTT. The reaction was quenched by adding 6 μL of the detection mixture that contained Streptavidin XL665 and STK Antibody-Cryptate (Cisbio) and incubated for 1 hour at room temperature. The HTRF (665 nm/620 nm) signal was read on the PHERAstar reader (BMG Labtech). All measurements were done in triplicate.

[1] = 2021-01-17 ROCK1 HTRF (n=1) 665/620, no unit printed (values equal the uM IC50 of the 7th table x 1e-6), read-out: qAC50
[2] = 2021-01-17 ROCK1 HTRF (n=1) 665/620 Activity [%]
[3] = 2021-01-18 ROCK1 (n=3) 665/620, no unit printed (values equal the uM IC50 of the 7th table x 1e-6), read-out: qAC50
[4] = 2021-01-18 ROCK1 (n=3) 665/620 Activity [%]
[5] = 2021-01-18 ROCK1 HTRF (n=2) 665/620, no unit printed (values equal the uM IC50 of the 7th table x 1e-6), read-out: qAC50
[6] = 2021-01-18 ROCK1 HTRF (n=2) 665/620 Activity [%]
[7] = Supplementary Figure 4 source data, unit inferred, read-out: hit IC50

T1 sequence (Q13464 1-477): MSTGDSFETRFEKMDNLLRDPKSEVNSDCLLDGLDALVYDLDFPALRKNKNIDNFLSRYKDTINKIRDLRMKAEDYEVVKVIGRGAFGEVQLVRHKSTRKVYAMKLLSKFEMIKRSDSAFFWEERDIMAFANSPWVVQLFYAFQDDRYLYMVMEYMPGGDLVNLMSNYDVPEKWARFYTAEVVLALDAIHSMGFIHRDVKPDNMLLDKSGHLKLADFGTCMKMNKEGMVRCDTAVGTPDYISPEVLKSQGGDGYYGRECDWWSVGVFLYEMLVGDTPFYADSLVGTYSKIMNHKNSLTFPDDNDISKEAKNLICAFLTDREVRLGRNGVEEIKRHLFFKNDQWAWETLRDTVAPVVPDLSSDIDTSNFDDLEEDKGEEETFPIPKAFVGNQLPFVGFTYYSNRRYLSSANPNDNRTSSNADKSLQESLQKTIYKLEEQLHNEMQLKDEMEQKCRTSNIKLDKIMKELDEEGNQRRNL

| SMILES | IC50 [1] | S0 [2] | Sinf [2] | nHill (2021-01-17 ROCK1 HTRF (n=1)) | IC50 [3] | S0 [4] | Sinf [4] | nHill (2021-01-18 ROCK1 (n=3)) | IC50 [5] | S0 [6] | Sinf [6] | nHill (2021-01-18 ROCK1 HTRF (n=2)) | IC50 [7] | Ki |
| --- | --- | --- | --- | --- | --- | --- | --- | --- | --- | --- | --- | --- | --- | --- |
| CC(NC(=O)c1ccc(-c2cn[nH]c2)cc1)C1CC1c1ccccc1 (mixture of isomers) [Compound 6] | 0.248 µM | 0.4458% | -96.8224% | 1.0903 | 0.14 µM | -2.655% | -93.6754% | 1.532 | 0.157 µM | 3.31% | -94.0095% | 1.2951 | 0.182 µM | 87 ± 28 nM |
| CC(Cc1ccc(F)cc1F)NC(=O)c1ccc(-c2cn[nH]c2)cc1 (racemic) [Compound 3] | 0.22 µM | 1.865% | -99.1673% | 1.058 | 0.121 µM | -2.06% | -95.7048% | 1.245 | 0.136 µM | -2.159% | -97.6218% | 1.01 | 0.159 µM | 76 ± 26 nM |
| COCc1cccc(CC(=O)Nc2ccc(-c3cn[nH]c3)cc2)c1 [Compound 1] | 0.0793 µM | -0.5714% | -100.2% | 1.046 | 0.0806 µM | -1.802% | -99.1388% | 1.109 | 0.0814 µM | -5.692% | -99.1049% | 1.139 | 0.08 µM | 38 ± 1 nM |
| CC(CNC(=O)c1ccc(-c2cn[nH]c2)cc1)N1CCc2ccccc21 (stereo not drawn) [Compound 2] | 0.108 µM | -2.075% | -98.9577% | 1.042 | 0.101 µM | 1.158% | -99.9466% | 0.9439 | 0.1 µM | -0.7898% | -98.8967% | 0.9788 | 0.103 µM | 49 ± 2 nM |
| O=C(NCC1(Cc2ccccc2)CC1)c1ccc(-c2cn[nH]c2)cc1 [Compound 4] | 0.197 µM | -5.337% | -98.9033% | 1.05 | 0.147 µM | -5.138% | -96.0861% | 1.483 | 0.15 µM | -6.676% | -95.9487% | 1.644 | 0.165 µM | 79 ± 13 nM |
| CSc1cccc(F)c1CNC(=O)c1ccc(-c2cn[nH]c2)cc1 [Compound 5] | 0.173 µM | 3.131% | -99.2397% | 1.067 | 0.171 µM | -0.4047% | -100.142% | 0.9507 | 0.17 µM | 3.5105% | -98.3773% | 1.136 | 0.171 µM | 82 ± 1 nM |
